Earlier results as cited in patent US11260055B2, “Oral pharmaceutical composition of lurasidone and preparation thereof” (PIRAMAL PHARMA LIMITED, priority 2017, dated 2022).

Conditions: in water

For `O=C1[C@@H]2[C@H]3CC[C@H](C3)[C@@H]2C(=O)N1C[C@@H]1CCCC[C@H]1CN1CCN(c2nsc3ccccc23)CC1` [Lurasidone], which Solubility is on record?
Its Solubility is “poor water solubility”.
